# What was measured:
# Test in all cases: […]CABP radioligand binding
# Type in all cases: biochemical
# Settings in all cases: labelled compound, E. coli soluble protein
# RrL^c2 = target: T1, RrL^c2 (Rhodospirillum rubrum, UniProt P04718)
# T1 sequence (P04718 1-466): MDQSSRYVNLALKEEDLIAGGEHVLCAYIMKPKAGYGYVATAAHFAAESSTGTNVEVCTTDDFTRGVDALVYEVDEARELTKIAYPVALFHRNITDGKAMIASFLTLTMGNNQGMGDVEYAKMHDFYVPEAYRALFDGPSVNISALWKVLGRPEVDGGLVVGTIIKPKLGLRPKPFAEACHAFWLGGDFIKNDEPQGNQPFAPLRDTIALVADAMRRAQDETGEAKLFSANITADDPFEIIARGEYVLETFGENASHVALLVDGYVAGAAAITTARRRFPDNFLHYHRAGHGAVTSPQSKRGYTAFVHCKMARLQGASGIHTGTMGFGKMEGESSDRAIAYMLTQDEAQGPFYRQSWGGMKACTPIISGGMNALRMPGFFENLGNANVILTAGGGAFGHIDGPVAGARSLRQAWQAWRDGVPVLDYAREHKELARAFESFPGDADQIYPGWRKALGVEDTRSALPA
# RrRubisco (RrL2) = target: T2, RrRubisco (RrL2) (Rhodospirillum rubrum, UniProt P04718)
# T2 sequence (P04718 1-466): T1 sequence (P04718 1-466)
# Rr^cL2 = target: T3, Rr^cL2 (Rhodospirillum rubrum, UniProt P04718)
# T3 sequence (P04718 1-466): T1 sequence (P04718 1-466)
structure (smiles),measurement,setting,value
O=C(O)[C@@](O)(COP(=O)(O)O)[C@H](O)[C@H](O)COP(=O)(O)O [14CABP],14CABP radioligand binding (active-site quantification),RrL^c2,CLP tagging to RbcL was found to have no measurable impact on RrRubisco formation
same,14CABP radioligand binding (active-site quantification),RrRubisco (RrL2),CLP tagging to RbcL was found to have no measurable impact on RrRubisco formation
same,14CABP radioligand binding (active-site quantification),Rr^cL2,CLP tagging to RbcL was found to have no measurable impact on RrRubisco formation

# Source: paper PMC12575627 (Nature Communications, 2025)
